Test results published in PubChem BioAssay AID2060341 (Molecular Pharmacology Branch, DTP, NCI, 2025).
“And” between values parts separate entries of the source, which are not always exact repeats. Identical values can stand only once.

Test system: 327498-153-R-J2-PDC multicell spheroid viability
Test: Anticancer human tumor 327498-153-R-J2-PDC patient-derived uterine carcinosarcoma cell line growth inhibition [IpAb]
Details: for viability, T/C: stronger effect = lower value
Procedure, shortened: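 Multi-cell spheroids of 60% tumour cells, 25% HUVEC and 15% MSC in ultra-low-attachment U-bottom wells, treated with agents combined with ipatasertib or abemaciclib. Half-log ranges top out near clinical Cmax, or 10 microM when Cmax is unknown.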

[1] = curve of first compound, second compound 0.1 µM
[2] = curve of first compound, second compound 0.316 µM
[3] = curve of first compound, second compound 1 µM
[4] = curve of first compound, second compound 3.16 µM
[5] = curve of first compound, second compound 10 µM
[6] = second compound 0.1 µM, first compound 0.00316 µM
[7] = second compound 0.1 µM, first compound 0.01 µM
[8] = second compound 0.1 µM, first compound 0.0316 µM
[9] = second compound 0.1 µM, first compound 0.1 µM
[10] = second compound 0.316 µM, first compound 0.00316 µM
[11] = second compound 0.316 µM, first compound 0.01 µM
[12] = second compound 0.316 µM, first compound 0.0316 µM
[13] = second compound 0.316 µM, first compound 0.1 µM
[14] = second compound 1 µM, first compound 0.00316 µM
[15] = second compound 1 µM, first compound 0.01 µM
[16] = second compound 1 µM, first compound 0.0316 µM
[17] = second compound 1 µM, first compound 0.1 µM
[18] = second compound 3.16 µM, first compound 0.00316 µM
[19] = second compound 3.16 µM, first compound 0.01 µM
[20] = second compound 3.16 µM, first compound 0.0316 µM
[21] = second compound 3.16 µM, first compound 0.1 µM
[22] = second compound 10 µM, first compound 0.00316 µM
[23] = second compound 10 µM, first compound 0.01 µM
[24] = second compound 10 µM, first compound 0.0316 µM
[25] = second compound 10 µM, first compound 0.1 µM
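Also: spheroids exposed to agents for 7 days.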
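For viability, T/C in this document: 100% = DMSO vehicle control viability.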

In the case of `COc1c(OCCCN2CCOCC2)ccc2c3n(c(=NC(=O)c4cnc(N)nc4)nc12)CCN3` + CC(C)NCC(C(=O)N1CCN(c2ncnc3c2C(C)CC3O)CC1)c1ccc(Cl)cc1, the IC50 [1] is reported as 45.9 nM, the IC50 [2] is reported as 35.8 nM and the IC50 [3] is reported as 4.21 nM. For the same compound, the IC50 [4] was < 3.16 nM, the IC50 [5] was < 3.16 nM and the viability, T/C [6] was 81.6%. For the same compound, the viability, T/C [7] was 74.9%, the viability, T/C [8] was 58% and the viability, T/C [9] was 33.3%. The viability, T/C (second compound 0.1 µM, first compound 0.316 µM) was 16.8%, the viability, T/C (second compound 0.1 µM, first compound 1 µM) was 9.2% and the viability, T/C [10] was 67.2%. It also gave a viability, T/C [11] of 67.5%, a viability, T/C [12] of 52.1% and a viability, T/C [13] of 27.5%. For the same compound, the viability, T/C (second compound 0.316 µM, first compound 0.316 µM) was 15.2%, the viability, T/C (second compound 0.316 µM, first compound 1 µM) was 8.52% and the viability, T/C [14] was 53.5%. The viability, T/C [15] was 39.2%, the viability, T/C [16] was 32.4% and the viability, T/C [17] was 21.1%. It also gave a viability, T/C (second compound 1 µM, first compound 0.316 µM) of 9.37%, a viability, T/C (second compound 1 µM, first compound 1 µM) of 7.49% and a viability, T/C [18] of 42.2%. It also gave a viability, T/C [19] of 33.3%, a viability, T/C [20] of 23.6% and a viability, T/C [21] of 15%. The viability, T/C (second compound 3.16 µM, first compound 0.316 µM) was 8.38%, the viability, T/C (second compound 3.16 µM, first compound 1 µM) was 5.77% and the viability, T/C [22] was 34.2%. For the same compound, the viability, T/C [23] was 25.9%, the viability, T/C [24] was 22.4% and the viability, T/C [25] was 11.9%. For the same compound, the viability, T/C (second compound 10 µM, first compound 0.316 µM) was 7.65% and the viability, T/C (second compound 10 µM, first compound 1 µM) was 4.58%.

With `CC(=O)c1c(C)c2cnc(Nc3ccc(N4CCNCC4)cn3)nc2n(C2CCCC2)c1=O` + CCN1CCN(Cc2ccc(Nc3ncc(F)c(-c4cc(F)c5nc(C)n(C(C)C)c5c4)n3)nc2)CC1 the IC50 (curve of first compound, second compound 0.01 µM) was > 300 nM, the IC50 (curve of first compound, second compound 0.0316 µM) was > 300 nM and the IC50 [1] was > 300 nM. The IC50 [2] was > 300 nM, the IC50 [3] was > 300 nM and the viability, T/C (second compound 0.01 µM, first compound 0.000949 µM) was 91.3%. It also gave a viability, T/C (second compound 0.01 µM, first compound 0.003 µM) of 88.8%, a viability, T/C (second compound 0.01 µM, first compound 0.00949 µM) of 91% and a viability, T/C (second compound 0.01 µM, first compound 0.03 µM) of 82.3%. It also gave a viability, T/C (second compound 0.01 µM, first compound 0.0949 µM) of 70.7%, a viability, T/C (second compound 0.01 µM, first compound 0.3 µM) of 59.1% and a viability, T/C (second compound 0.0316 µM, first compound 0.000949 µM) of 77.1%. It also gave a viability, T/C (second compound 0.0316 µM, first compound 0.003 µM) of 74.8%, a viability, T/C (second compound 0.0316 µM, first compound 0.00949 µM) of 72.8% and a viability, T/C (second compound 0.0316 µM, first compound 0.03 µM) of 65%. It also gave a viability, T/C (second compound 0.0316 µM, first compound 0.0949 µM) of 59.9%, a viability, T/C (second compound 0.0316 µM, first compound 0.3 µM) of 54.8% and a viability, T/C (second compound 0.1 µM, first compound 0.000949 µM) of 66.2%. For the same compound, the viability, T/C (second compound 0.1 µM, first compound 0.003 µM) was 61%, the viability, T/C (second compound 0.1 µM, first compound 0.00949 µM) was 67.3% and the viability, T/C (second compound 0.1 µM, first compound 0.03 µM) was 56.9%. It also gave a viability, T/C (second compound 0.1 µM, first compound 0.0949 µM) of 59.9%, a viability, T/C (second compound 0.1 µM, first compound 0.3 µM) of 57.1% and a viability, T/C (second compound 0.316 µM, first compound 0.000949 µM) of 58.3%. The viability, T/C (second compound 0.316 µM, first compound 0.003 µM) was 58.2%, the viability, T/C (second compound 0.316 µM, first compound 0.00949 µM) was 62% and the viability, T/C (second compound 0.316 µM, first compound 0.03 µM) was 54.6%. The viability, T/C (second compound 0.316 µM, first compound 0.0949 µM) was 56.4%, the viability, T/C (second compound 0.316 µM, first compound 0.3 µM) was 60.6% and the viability, T/C (second compound 1 µM, first compound 0.000949 µM) was 55.5%. The viability, T/C (second compound 1 µM, first compound 0.003 µM) was 57.9%, the viability, T/C (second compound 1 µM, first compound 0.00949 µM) was 62% and the viability, T/C (second compound 1 µM, first compound 0.03 µM) was 54.1%. The viability, T/C (second compound 1 µM, first compound 0.0949 µM) was 57.6% and the viability, T/C (second compound 1 µM, first compound 0.3 µM) was 56.2%.

For `C=CCn1c(=O)c2cnc(Nc3ccc(N4CCN(C)CC4)cc3)nc2n1-c1cccc(C(C)(C)O)n1`, the viability, T/C (compound 0.0316 µM) was 97% and 97.5%, the viability, T/C (compound 0.1 µM) was 106% and 94.9% and the viability, T/C (compound 0.316 µM) was 56.2% and 56.8%. For the same compound, the viability, T/C (compound 1 µM) was 4.15% and 5.89%, the viability, T/C (compound 3.16 µM) was 3.83% and 4.76% and the viability, T/C (compound 10 µM) was 5.49% and 6.6%. For the same compound, the IC50 (curve of compound) was 363 nM and 369 nM.

With `Cn1ncnc1[C@H]1c2n[nH]c(=O)c3cc(F)cc(c23)N[C@@H]1c1ccc(F)cc1` + CC(C)NCC(C(=O)N1CCN(c2ncnc3c2C(C)CC3O)CC1)c1ccc(Cl)cc1 the IC50 [1] was 23.7 nM, the IC50 [2] was 8.7 nM and the IC50 [3] was 1.57 nM. For the same compound, the IC50 [4] was 0.58 nM, the IC50 [5] was < 0.316 nM and the viability, T/C (second compound 0.1 µM, first compound 0.000316 µM) was 94.7%. The viability, T/C (second compound 0.1 µM, first compound 0.001 µM) was 93.1%, the viability, T/C [6] was 83.7% and the viability, T/C [7] was 69.7%. For the same compound, the viability, T/C [8] was 43.1%, the viability, T/C [9] was 25.1% and the viability, T/C (second compound 0.316 µM, first compound 0.000316 µM) was 74.5%. For the same compound, the viability, T/C (second compound 0.316 µM, first compound 0.001 µM) was 71.6%, the viability, T/C [10] was 64% and the viability, T/C [11] was 47.8%. For the same compound, the viability, T/C [12] was 31.1%, the viability, T/C [13] was 20.6% and the viability, T/C (second compound 1 µM, first compound 0.000316 µM) was 60%. The viability, T/C (second compound 1 µM, first compound 0.001 µM) was 57.8%, the viability, T/C [14] was 39.7% and the viability, T/C [15] was 36.6%. It also gave a viability, T/C [16] of 25.8%, a viability, T/C [17] of 14.7% and a viability, T/C (second compound 3.16 µM, first compound 0.000316 µM) of 48.7%. The viability, T/C (second compound 3.16 µM, first compound 0.001 µM) was 53.4%, the viability, T/C [18] was 37.8% and the viability, T/C [19] was 26.7%. For the same compound, the viability, T/C [20] was 21.1%, the viability, T/C [21] was 12.8% and the viability, T/C (second compound 10 µM, first compound 0.000316 µM) was 39%. For the same compound, the viability, T/C (second compound 10 µM, first compound 0.001 µM) was 35.2%, the viability, T/C [22] was 26.9% and the viability, T/C [23] was 20.7%. It also gave a viability, T/C [24] of 14.8% and a viability, T/C [25] of 10.4%.
